Experimental data published in US8236792B2, “Substituted pyrrolidine amides as modulators of the histamine H3 receptor” (Janssen Pharmaceutica NV, priority 2008, dated 2012).

Each molecule was assayed against T1, cloned human H3 receptors (Homo sapiens, UniProt Q9Y5N1) (assay: H3 Receptor Binding (Human) Method 1). Settings: receptor stably expressed in SK-N-MC cells, free base forms, average of results.
T1 construct: expressed in transfected cells
T1 sequence (Q9Y5N1 whole entry): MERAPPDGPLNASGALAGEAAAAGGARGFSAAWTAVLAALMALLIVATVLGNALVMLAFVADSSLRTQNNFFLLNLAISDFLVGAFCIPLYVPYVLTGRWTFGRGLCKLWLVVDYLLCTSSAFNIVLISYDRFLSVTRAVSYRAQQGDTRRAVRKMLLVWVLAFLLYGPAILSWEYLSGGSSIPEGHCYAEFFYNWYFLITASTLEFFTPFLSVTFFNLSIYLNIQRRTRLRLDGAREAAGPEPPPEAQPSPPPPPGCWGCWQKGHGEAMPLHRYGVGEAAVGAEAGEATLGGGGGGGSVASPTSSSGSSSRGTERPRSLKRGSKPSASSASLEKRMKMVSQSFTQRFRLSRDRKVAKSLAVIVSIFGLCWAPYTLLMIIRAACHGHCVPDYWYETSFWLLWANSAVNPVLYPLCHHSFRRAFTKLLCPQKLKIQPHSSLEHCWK

| Ki [nM] | Compound |
| --- | --- |
| 25 | CC(C)(C)OC(=O)N1C[C@H](Oc2ccc(F)cc2)C[C@H]1C(=O)N1CCCN(C2CCC2)CC1 [Example 15, (2S,4R)-2-(4-Cyclobutyl-[1,4]diazepane-1-carbonyl)-4-(4-fluoro-phenoxy)-pyrrolidine-1-carboxylic acid tert-butyl ester] |
| 34 | CC(C)(C)OC(=O)N1C[C@H](OCc2ccc(F)cc2)C[C@@H]1C(=O)N1CCCN(C2CCC2)CC1 [Example 151, (2R,4R)-2-(4-Cyclobutyl-[1,4]diazepane-1-carbonyl)-4-(4-fluoro-benzyloxy)-pyrrolidine-1-carboxylic acid tert-butyl ester] |
| 52 | CC(C)(C)OC(=O)N1CC(Oc2ccc(Cl)c(Cl)c2)C[C@H]1C(=O)N1CCCN(C2CCC2)CC1 (stereo partly drawn) [Example 44, (2S)-2-(4-Cyclobutyl-[1,4]diazepane-1-carbonyl)-4-(3,4-dichloro-phenoxy)-pyrrolidine-1-carboxylic acid tert-butyl ester] |
| 149 | O=C([C@H]1C[C@@H](OCc2cccc(F)c2)CN1)N1CCCN(C2CCC2)CC1 [Example 154, (2R,4R)-2-(4-Cyclobutyl-[1,4]diazepane-1-carbonyl)-4-(3-fluoro-benzyloxy)-pyrrolidine] |
| 35 | CSc1ccc(OC2C[C@@H](C(=O)N3CCCN(C4CCC4)CC3)N(C(=O)OC(C)(C)C)C2)cc1 (stereo partly drawn) [Example 46, (2S)-2-(4-Cyclobutyl-[1,4]diazepane-1-carbonyl)-4-(4-methylsulfanyl-phenoxy)-pyrrolidine-1-carboxylic acid tert-butyl ester] |
| 77 | CC(C)(C)OC(=O)N1C[C@H](OCc2cccc(F)c2)C[C@@H]1C(=O)N1CCCN(C2CCC2)CC1 [Example 150, (2R,4R)-2-(4-Cyclobutyl-[1,4]diazepane-1-carbonyl)-4-(3-fluoro-benzyloxy)-pyrrolidine-1-carboxylic acid tert-butyl ester] |
| 5 | CC(C)(C)OC(=O)N1C[C@@H](Oc2ccc(F)cc2)C[C@@H]1C(=O)N1CCCN(C2CCC2)CC1 [Example 18, (2R,4S)-2-(4-Cyclobutyl-[1,4]diazepane-1-carbonyl)-4-(4-fluoro-phenoxy)-pyrrolidine-1-carboxylic acid tert-butyl ester] |
| 816 | CC(C)(C)CC(=O)N1C[C@@H](Oc2ccc(F)cc2)C[C@H]1C(=O)N1CCCN(C2CCC2)CC1 [Example 118, (2S,4S)-1-[2-(4-Cyclobutyl-[1,4]diazepane-1-carbonyl)-4-(4-fluoro-phenoxy)-pyrrolidin-1-yl]-3,3-dimethyl-butan-1-one] |
| 24 | CC(C)(C)OC(=O)N1CC(Oc2cccc(Cl)c2)C[C@H]1C(=O)N1CCCN(C2CCC2)CC1 (stereo partly drawn) [Example 42, (2S)-4-(3-Chloro-phenoxy)-2-(4-cyclobutyl-[1,4]diazepane-1-carbonyl)-pyrrolidine-1-carboxylic acid tert-butyl ester] |
| 8 | CC(C)(C)OC(=O)N1CC(Oc2ccc(C#N)cc2)C[C@H]1C(=O)N1CCCN(C2CCC2)CC1 (stereo partly drawn) [Example 45, (2S)-4-(4-Cyano-phenoxy)-2-(4-cyclobutyl-[1,4]diazepane-1-carbonyl)-pyrrolidine-1-carboxylic acid tert-butyl ester] |
| 284 | O=C([C@@H]1C[C@H](Oc2ccc(F)cc2)CN1)N1CCN(C2CCC2)CC1 [Example 63, (2S,4S)-2-(4-Cyclobutyl-piperazine-1-carbonyl)-4-(4-fluoro-phenoxy)-pyrrolidine] |

What follows are molecules tested against human H3 receptor (Homo sapiens, UniProt Q9Y5N1) (assay: H3 Receptor Binding (Human) Method 2, [125I]-iodoproxyfan competitive radioligand binding). Settings: Method 2; SK-N-MC cell membranes; [125I]-iodoproxyfan 1 nM; apparent Ki; free base or hydrochloride salt; average of results; read-out: Human H3 Ki.
Parameters: expressed in transfected cells
Procedure: SK-N-MC cells expressing the human H3 receptor were grown to confluence and tissue culture plates, washed with phosphate-buffered saline, and scraped into 50 mL tubes. After centrifugation, the supernatant was aspirated, and the pellets frozen and stored at −80° C. […] The homogenate was centrifuged at 25000×g for 25 min. […] Reactions were stopped by filtration through GF/B filter plates pre-soaked in 0.3% polyethylenimine and subsequently washed with Tris 50 mM, 5 mM EDTA buffer. Plates were dried for 1 h in a 55° C. oven. Scintillation fluid was added and the radioactivity was counted in a Packard TopCount. Non-specific binding to the H3 receptor was defined by radioactivity that was bound in the presence of 100 μM histamine.
Compounds were tested in their free base or hydrochloride salt forms.

Sequence of human H3 receptor (Q9Y5N1 whole entry): as above

| Ki [nM] | Compound |
| --- | --- |
| 12 | CC(C)N1C[C@@H](Oc2ccc(F)cc2)C[C@@H]1C(=O)N1CCCN(C2CCC2)CC1 [Example 112, (2R,4S)-1-Isopropyl-1-cyclobutyl-2-(4-cyclobutyl-[1,4]diazepane-1-carbonyl)-4-(4-fluoro-phenoxy)-pyrrolidine] |
| 55 | O=C([C@@H]1C[C@H](Oc2ccc(F)cc2)CN1C1CC1)N1CCCN(C2CCC2)CC1 [Example 141, (2S,4S)-2-(4-Cyclobutyl-[1,4]diazepan-1-yl)-[1-cyclopropyl-4-(4-fluoro-phenoxy)-pyrrolidin-2-yl]-methanone] |
| 44 | O=C(N1CCCN(C2CCC2)CC1)[C@@]1(Cc2cccc(F)c2)CCCN1 [Example 168, (2S)-2-(4-Cyclobutyl-[1,4]diazepane-1-carbonyl)-2-(3-fluoro-benzyl)-pyrrolidine] |
| 201 | O=C(N1CCCN(C2CCC2)CC1)[C@@]1(Cc2ccc(C(F)(F)F)cc2)CCCN1 [Example 170, (2S)-(4-Cyclobutyl-[1,4]diazepan-1-yl)-[2-(4-trifluoromethyl-benzyl)-pyrrolidin-2-yl]-methanone] |

Same assay, conditions: read-out: Human H3 Ki

| Ki [nM] | Compound |
| --- | --- |
| 432 | CC(C)(C)OC(=O)N1C[C@H](O)C[C@@H]1C(=O)N1CCCN(C2CCCC2)CC1 [Example 7, (2R,4R)-2-(4-Cyclopentyl-[1,4]diazepane-1-carbonyl)-4-hydroxy-pyrrolidine-1-carboxylic acid tert-butyl Ester] |
| 1 | CS(=O)(=O)N1C[C@@H](Oc2ccc(F)cc2)C[C@@H]1C(=O)N1CCCN(C2CCC2)CC1 [Example 140, (2R,4S)-(4-Cyclobutyl-[1,4]diazepan-1-yl)-[4-(4-fluoro-phenoxy)-1-methanesulfonyl-pyrrolidin-2-yl]-methanone] |
| 3 | CC(=O)N1C[C@@H](Oc2cccnc2)C[C@@H]1C(=O)N1CCCN(C2CCC2)CC1 [Example 133, (2R,4S)-1-[2-(4-Cyclobutyl-[1,4]diazepane-1-carbonyl)-4-(Pyridin-3-yloxy)-pyrrolidin-1-yl]-ethanone] |
| 14 | CC(C)(C)OC(=O)N1C[C@H](Oc2ccccc2)C[C@H]1C(=O)N1CCCN(C2CCC2)CC1 [Example 48, (2S,4R)-2-(4-Cyclobutyl-[1,4]diazepane-1-carbonyl)-4-phenoxy-pyrrolidine-1-carboxylic acid tert-butyl ester] |
| 5 | CC(C)(C)OC(=O)N1C[C@@H](Oc2ccc(S(C)(=O)=O)cc2)C[C@@H]1C(=O)N1CCCN(C2CCC2)CC1 [Example 25, (2R,4S)-2-(4-Cyclobutyl-[1,4]diazepane-1-carbonyl)-4-(4-methanesulfonyl-phenoxy)-pyrrolidine-1-carboxylic acid tert-butyl ester] |
| 2 | Cc1cnc(F)cc1O[C@@H]1C[C@@H](C(=O)N2CCCN(C3CCC3)CC2)N(C(=O)OC(C)(C)C)C1 (stereo in doubt) [Example 51, (2S,4R)-2-(4-Cyclobutyl-[1,4]diazepane-1-carbonyl)-4-(2-fluoro-5-methyl-pyridin-4-yloxy)-pyrrolidine-1-carboxylic acid tert-butyl ester] |
| 2 | Cc1cnc(F)cc1O[C@@H]1CN[C@@H](C(=O)N2CCCN(C3CCC3)CC2)C1 [Example 99, (2R,4S)-2-(4-Cyclobutyl-[1,4]diazepane-1-carbonyl)-4-(2-fluoro-5-methyl-pyridin-4-yloxy)-pyrrolidine] |
| 594 | CC(C)N1C[C@@H](Oc2ccc(F)cc2)C[C@H]1C(=O)N1CCCN(C2CCC2)CC1 [Example 108, (2S,4S)-(4-Cyclobutyl-[1,4]diazepan-1-yl)-[4-(4-fluoro-phenoxy)-1-isopropyl-pyrrolidin-2-yl]-methanone] |
| 1100 | CC(C)(C)OC(=O)N1CC[C@@H](Oc2ccc(C#N)cc2)[C@H]1C(=O)N1CCCN(C2CCC2)CC1 [Example 145, (2S,3R)-3-(4-Cyano-phenoxy)-2-(4-cyclobutyl-[1,4]diazepane-1-carbonyl)-pyrrolidine-1-carboxylic acid tert-butyl ester] |
| 50 | O=C([C@@H]1C[C@@H](Cc2ccsc2)CN1)N1CCCN(C2CCC2)CC1 [Example 180, (2S,4R)-(4-Cyclobutyl-[1,4]diazepan-1-yl)-(4-thiophen-3-ylmethyl-pyrrolidin-2-yl)-methanone] |
| 57 | CC(C)(C)OC(=O)N1C[C@H](Oc2cccc(F)c2)C[C@@H]1C(=O)N1CCCN(C2CCC2)CC1 [Example 55, (2R,4R)-2-(4-Cyclobutyl-[1,4]diazepane-1-carbonyl)-4-(3-fluoro-phenoxy)-pyrrolidine-1-carboxylic acid tert-butyl ester] |
| 43 | CC(C)(C)OC(=O)N1C[C@@H](Oc2cccc(F)c2)C[C@@H]1C(=O)N1CCC(N2CCCC2)C1 (stereo partly drawn) [Example 39, (2R,4S)-2-([1,3′]Bipyrrolidinyl-1′-carbonyl)-4-(3-fluoro-Phenoxy)-pyrrolidine-1-carboxylic acid tert-butyl ester] |
| 211 | CC(C)(C)OC(=O)N1C[C@H](Oc2ccccc2)C[C@@H]1C(=O)N1CCCN(C2CCC2)CC1 [Example 58, (2R,4R)-2-(4-Cyclobutyl-[1,4]diazepane-1-carbonyl)-4-phenoxy-pyrrolidine-1-carboxylic acid tert-butyl ester] |
| 5 | Cc1cccc(O[C@@H]2CN[C@@H](C(=O)N3CCCN(C4CCC4)CC3)C2)c1 [Example 74, (2R,4S)-4-(4-m-Tolyloxy)-2-(4-cyclobutyl-[1,4]diazepane-1-carbonyl)-pyrrolidine] |
| 203 | CC(=O)N1C[C@H](Cc2ccsc2)C[C@H]1C(=O)N1CCCN(C2CCC2)CC1 [Example 183] |
| 1240 | CN(C)C1CCN(C(=O)[C@H]2C[C@H](Oc3ccc(F)cc3)CN2C(=O)OC(C)(C)C)CC1 [Example 40, (2R,4S)-2-(4-Dimethylamino-piperidine-1-carbonyl)-4-(4-fluoro-phenoxy)-pyrrolidine-1-carboxylic acid tert-butyl ester] |
| 55 | CCN1C[C@@H](Oc2ccc(F)cc2)C[C@H]1C(=O)N1CCCN(C2CCC2)CC1 [Example 109, (2S,4S)-(4-Cyclobutyl-[1,4]diazepan-1-yl)-[1-ethyl-4-(4-fluoro-phenoxy)-pyrrolidin-2-yl]-methanone] |

| Compound | Ki [nM] |
| --- | --- |
| O=C([C@H]1C[C@H](Oc2ccc(F)cc2)CN1C1CCC1)N1CCCN(C2CCC2)CC1 [Example 111, (2R,4S)-1-Cyclobutyl-2-(4-cyclobutyl-[1,4]diazepane-1-carbonyl)-4-(4-fluoro-phenoxy)-pyrrolidine] | 17 |
